The results in this text go back to US6518257B1, “1-substituted phenyl-1-(1h-imidazol-4-yl) alcohols, process for producing the same and use thereof” (Takeda Chemical Industries, Ltd., priority 1999, dated 2003).

One test addresses T1, Rat Steroid C17,20-lyase (Rattus norvegicus, UniProt P11715).
T1 construct: Testes were excised from 13-week-old male SD rats, homogenized, and centrifuged to give microsomes; from tissue; host or cells: testis microsomes of 13-week-old male SD rats
T1 sequence (P11715 1-507): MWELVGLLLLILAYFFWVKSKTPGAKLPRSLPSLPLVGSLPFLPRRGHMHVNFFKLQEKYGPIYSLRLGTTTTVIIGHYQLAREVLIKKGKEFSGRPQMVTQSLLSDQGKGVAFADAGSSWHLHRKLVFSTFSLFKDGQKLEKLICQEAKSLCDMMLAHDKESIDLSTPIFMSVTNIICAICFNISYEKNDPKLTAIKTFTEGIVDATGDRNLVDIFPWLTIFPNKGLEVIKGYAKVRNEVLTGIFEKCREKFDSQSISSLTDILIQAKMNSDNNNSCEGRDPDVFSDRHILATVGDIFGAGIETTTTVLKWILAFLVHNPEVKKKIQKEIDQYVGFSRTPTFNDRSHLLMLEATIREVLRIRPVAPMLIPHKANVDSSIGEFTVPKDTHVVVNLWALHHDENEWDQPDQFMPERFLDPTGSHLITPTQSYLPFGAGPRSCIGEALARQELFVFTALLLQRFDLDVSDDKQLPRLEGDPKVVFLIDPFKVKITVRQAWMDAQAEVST
Put plainly: Assay of inhibitory activity on rat steroid C17,20-lyase (testis microsomes, [1,2-3H]-17-α-hydroxyprogesterone substrate, TLC). In kind it is biochemical. Particulars: rat testis microsomes (7 μg/10 μl), 10 nM [1,2-3H]-17-α-hydroxyprogesterone, NADPH, pH 7.4, 37° C., 7 minutes; products androstenedione and testosterone. How it is done: Assay of Inhibitory Activity on Rat Steroid C17,20-lyase
The activity was determined according to The Prostate, vol. 26, 140-150 (1995).
Testes were excised from 13-week-old male SD rats, homogenized, and centrifuged to give microsomes. [1,2-^3H]-17-α-hydroxyprogesterone having a final concentration of 10 nM, NADPH solution and test compounds were dissolved in 10 μl of 100 mM phosphate buffer (pH 7.4) and microsome protein (7 μg/10 μl) was added. The reaction mixture was incubated at 37° C. for 7 minutes. Ethyl acetate (40 μl) was added and the mixture was centrifuged. The substrate and the products (androstenedione and testosterone) in the supernatant were separated by silica gel thin layer chromatography (TLC). The spots were detected and quantitatively determined by BAS 2000 Bioimage analyzer. The concentration of the test compounds necessary to reduce the amount of the products by 50% (IC50) relative to the amount of the products without test compound (control) as 100% was calculated, and shown in Table 1.

In test [1] the test system is Testosterone Synthesis in Rats. Put plainly: Assay of inhibitory activity on testosterone synthesis in rats (serum testosterone by radioimmunoassay). Type of test: in vivo, rat. The following applies: 50 mg/kg orally, 9-week-old male SD rats, serum testosterone two hours after administration, as percentage of control group. How it is done: Assay of Inhibitory Activity on Testosterone Synthesis in Rats
Test compounds (50 mg/kg) were orally administered to 9-week-old male SD (Sprague Dawley) rats. Two hours after administration of the compounds, blood was drawn and testosterone concentration in the obtained serum was measured by radioimmunoassay. The percentage (T/C, %) of the testosterone concentration of test compounds administration group to that of the control group was calculated, and taken as the inhibitory activity on testosterone synthesis.

As usually defined, the IC50 is the concentration at which inhibition is half-maximal. A higher IC50 goes with a need for much substance. `CC(C)C(O)(c1ccc(-c2ccc(F)cc2)cc1)c1c[nH]cn1` (stereo not drawn) [Example 4, 1-(4′-fluoro[1,1′-biphenyl]-4-yl)-1-(1H-imidazol-4-yl)-2-methyl-1-propanol] registered an IC50 at Rat Steroid C17,20-lyase of 28 nM. In other words, the double-digit nanomolar range.

The compound `CC(C)C(O)(c1cccc(-c2ccccc2)c1)c1c[nH]cn1` (stereo not drawn) [Example 6, 1-[1,1′-biphenyl]-3-yl-1-(1H-imidazol-4-yl)-2-methyl-1-propanol] showed an IC50 against Rat Steroid C17,20-lyase of 15 nM. The “testosterone synthesis inhibitory activity (T/C, %)” value in test [1] was determined as 4.3%. For `COc1ccc(-c2cccc(C(O)(c3c[nH]cn3)C(C)C)c2)cc1` (stereo not drawn) [Example 9, 1-(1H-imidazol-4-yl)-1-(4′-methoxy[1,1′-biphenyl]-3-yl)-2-methyl-1-propanol], in that order: 10 nM and 4.6%.

`CC(C)C(O)(c1cccc(-c2ccc(F)cc2)c1)c1c[nH]cn1` (stereo not drawn) [Example 13, 1-(4′-fluoro[1,1′-biphenyl]-3-yl)-1-(1H-imidazol-4-yl)-2-methyl-1-propanol] yielded an IC50 at Rat Steroid C17,20-lyase of 8.3 nM. In addition, the “testosterone synthesis inhibitory activity (T/C, %)” value in test [1] stood at 4.7%.

In turn, `Cc1ccccc1-c1cccc(C(O)(c2c[nH]cn2)C(C)C)c1` (stereo not drawn) [Example 17, 1-(1H-imidazol-4-yl)-2-methyl-1-(2′-methyl[1,1′-biphenyl]-3-yl)-1-propanol] came in with an IC50 at Rat Steroid C17,20-lyase of 12 nM. With `CCC(O)(c1cccc(-c2ccc(F)cc2)c1)c1c[nH]cn1` (stereo not drawn) [Example 27, 1-[4′-fluoro[1,1′-biphenyl]-3-yl]-1-(1H-imidazol-4-yl)-1-propanol], inhibition at Rat Steroid C17,20-lyase was half-maximal at 11 nM (IC50).
